In patent US20250000991A1, “NECTIN-4 ANTIBODIES AND ANTIBODY-DRUG CONJUGATES” (Eli Lilly and Company, priority 2023, published 2025):
Square brackets hold non-standard residues; d marks the D form. Peptide text beside a SMILES is read from it. * marks the point of attachment. Dolaproine = CO[C@@H]([C@@H]1CCCN1)[C@@H](C)C(=O)O; Dil = CC[C@H](C)[C@H](NC)[C@@H](CC(=O)O)OC; X1 = C[C@@H](N*)[C@@H](O)c1ccccc1; NMeV = CN[C@H](C(=O)O)C(C)C

Experiments:
[1] = test system: UMUC3-Luc-GFP Nectin-4 negative cells; experiment: Free payload cytotoxicity on UMUC3-Luc-GFP cells; type: cell-based; settings: 5 days
Procedure: (§1) UMUC3 cell line was engineered to express human Nectin4 and two clonal populations with different levels of expression were selected. In flat white clear-bottom 96-well plates, UMUC3-hNectin4 clone F7/UMUC3-Luc-GFP cells were mixed and seeded at a total of 1500 cells/well/100 ul with a ratio of 4:1 in assay medium (MEM+1× GlutaMax+10% Heat Inactivated Fetal Bovine Serum+1 mM sodium pyruvate). UMUC3-hNectin4 clone E3/UMUC3-Luc-GFP cells were mixed and seeded at a total of 2100 cells/well/100 ul with a ratio of 6:1 in assay medium. UMUC3-Luc-GFP cells were negative for nectin-4 expression. Plates were incubated at 37° C. with 5% CO2 overnight. Next day, ADCs were added at final working concentration from 100 nM, 1:3 serially diluted in assay medium. To assess sensitivity of cell line to free payload, free payloads were added at final working concentration from 200 nM, 1:3 serially diluted in assay medium. […] Plates were read after 5-days treatment using ONE-Glo™ Luciferase Assay System. […] Luminescence was read in the SpectraMax M5e. […] Percentage of UMUC3-Luc-GFP killing was calculated against no treatment as 0%. Data was graphed and analyzed using Graphpad Prism version 9.5.1. IC50 was determined via log(inhibitor) vs. response (three parameters) curve fitting for bystander activity and log(inhibitor) vs. response (four parameters) for free payload cytotoxicity.

[2] = test system: T24-human nectin4 clone147 cells; experiment: In vitro CDC assay with human serum complement; type: cell-based; settings: nectin-4 expressing T24 cell line
Procedure: T24 cell line was engineered to express high level of human Nectin4 and clonally selected. T24-human nectin4 clone147 cells were added in white clear-bottom 96-well tissue culture plates in assay medium (McCoy's 5A+1× GlutaMax+10% Heat Inactivated Fetal Bovine Serum) and incubated in the incubator at 37° C. with 5% CO2 overnight. Next day, 50 ul/well antibodies were added at final working concentration from 200 nM, 1:3 serially diluted in assay medium and incubated at 37° C. with 5% CO2 for one hour. Diluted human serum complement (1:3) was then added at 50 ul/well in assay medium and incubated at 37° C. with 5% CO2 for 3 hours. Plate was read using CellTiter-Glo Luminescent Cell Viability Assay. 100 ul/well CellTiter-Glo reagent were incubated in plates at room temperature for 10 min. Luminescence was read in the SpectraMax M5e. RLUs (Relative Light Units) were obtained with SoftMax Pro 5.4. Percentage of cell killing was calculated against no treatment. Data was graphed and analyzed using GraphPad Prism version 9.5.1.

[3] = test system: HEKα cells (normal human epidermal keratinocytes); experiment: Binding to normal human epidermal keratinocytes by flow cytometry; settings: ADC (Formula XI, DAR of 8); read-out: EC50 of cell surface binding to normal human epidermal keratinocytes
Procedure: To characterize binding of nectin-4 antibodies and ADCs of the present disclosure to normal human epidermal keratinocytes, HEKα cells were plated in 150×25 mm tissue culture dish (Corning Inc.) in complete culture medium (Dermal Cell Basal Medium+Keratinocytes Growth Kit, ATCC) at 1 million per well to achieve confluency within 24 hours. The differentiation process progressed for an additional 5-10 days. Following the induction of differentiation, cells were dissociated with 2 mg/mL Type XI Collagenase from Clostridium histolyticum (Sigma-Aldrich) at 37° C. Cells were counted and aliquoted to a V-bottom polypropylene 96-well plate (Thermo Scientific Nunc) at 10^5 cells/well. Antibodies and ADCs were added to cells starting at 300 nM, 1:4 serially diluted in assay buffer (1×DPBS containing 2% FBS, Gibco). Cells were incubated on a microplate shaker at 4° C., protected from light for 1 hour. After incubation, cells were washed twice with 200 uL/well of assay buffer and stained with Alexa Fluor 647-conjugated AffiniPure F(ab')2 Fragment Goat Anti-Human IgG (H+L) (Jackson ImmunoResearch) at 1:1,000 dilution. Following an hour incubation at 4° C., cells were washed twice with 200 uL/well of assay buffer and stained with Zombie Green fixable viability dye (BioLegend) at 1:2,000 dilution. Cells were incubated on a microplate shaker at 4° C. for 20 minutes. […]

[4] = test system: T24 mScarlet clone 5 Nectin-4 negative cells; experiment: Bystander killing of T24-mScarlet clone 5 cells co-cultured with T24-human nectin4 clone108 (imaging); type: cell-based; settings: T24-mScarlet clone5 : T24-human nectin4 clone108 9:1, 5 days, ADC Formula XI DAR 8; read-out: IC50 of bystander effect
Procedure: T24 cell line was engineered to express mScarlet and clonally selected to test in bystander assay. T24-mScarlet clone5 and T24-human nectin4 clone108 were mixed and seeded at a total of 1000 cells/well/100 ul with a ratio of 9:1 in culture medium (McCoy's 5A+1× GlutaMax+10% Heat Inactivated Fetal Bovine Serum+400 μg/ml G418) in flat clear bottom 96-well plates. T24 mScarlet clone 5 cells were negative for nectin-4 expression. Plates were incubated at 37° C. with 5% CO2 overnight. Next day, ADCs were added at final working concentration from 50 nM, 1:4 serially diluted in culture medium. Plates were covered with Breathe-Easy® sealing membrane, placed in BioSpa and scanned in Cytation5 every day for 5 days.
Images of T24-mScarlet cells were captured and analyzed by Cytation5 with Gen5 Image Prime 3.11. Percentage of T24-mScarlet cell killing was calculated by decreased Integrated Intensity (area×mean intensity), normalized to zero hour and no treatment. Data was graphed and analyzed using GraphPad Prism version 9.5.1. IC50 was determined via log(inhibitor) vs. response-variable slope (four parameters) curve fitting.

[5] = test system: NCI-H1781 cells; experiment: ADC cytotoxicity (CellTiter-Glo), low nectin-4 expression line; type: cell-based; settings: NCI H1781, 5 days, ADC Formula XI DAR 8
Procedure: NCI-H1781 cells, a low expression cell line, were seeded in white clear-bottom 96-well tissue culture plates in culture medium (RPMI 1640+1× GlutaMax+10% Heat Inactivated Fetal Bovine Serum+1 mM sodium pyruvate). Cells were incubated at 37° C. with 5% CO2 overnight. Next day, ADCs were added at final working concentration from 100 nM, 1:3 serially diluted in culture medium. Plates were covered with Breathe-Easy® sealing membrane and incubated at 37° C. with 5% CO2. Plates were read after 5 days treatment using CellTiter-Glo Luminescent Cell Viability Assay. 100 ul/well CellTiter-Glo reagent were incubated in plates at room temperature for 10 min. Luminescence was read in the SpectraMax M5e. RLUs (Relative Light Units) were obtained with SoftMax Pro 5.4. Percentage of cell killing was calculated against no treatment as 0%. Data was graphed and analyzed using GraphPad Prism version 9.5.1. IC50 was determined via log(inhibitor) vs. response-variable slope (four parameters) curve fitting.

[6] = test system: T24-human Nectin-4-eGFP clone 3 cells; experiment: Internalization: degradation of nectin-4-eGFP signal by fluorescence imaging; type: cell-based; settings: ADC (Formula XI, DAR of 8), 24 h time course
Procedure: T24 cell line was engineered to express human Nectin-4-eGFP and clonally selected for high expression. […] human Nectin-4-eGFP clone 3 cells were plated at 12,000 cells per well, in black clear-bottom CellCarrier Ultra 384-well microplates (Perkin Elmer) in complete culture medium (McCoy's 5A, modified, +10% FBS+Glutamax+400 μg/mL G418+Pen/Strep). Plates were covered with AeraSeal™ Sealing Films and incubated overnight at 37° C., 5% CO2. Next day, antibodies and ADCs were added to cells, starting at 300 nM at 1:3 dilution. Plates were covered with AeraSeal™ and placed in incubator for imaging on PerkinElmer Opera Phenix Screening System over a 24 h time course. Data were processed and analyzed in Harmony and Microsoft Excel and graphed in GraphPad Prism.

[7] = test system: T24-human nectin-4 clone 108; experiment: ADC cytotoxicity (CellTiter-Glo), high nectin-4 expression line; type: cell-based; settings: T24 Nectin-4 clone 108, 5 days, ADC Formula XI DAR 8
Procedure: Plates were read after 5 days treatment using CellTiter-Glo Luminescent Cell Viability Assay. 100 ul/well CellTiter-Glo reagent were incubated in plates at room temperature for 10 min. Luminescence was read in the SpectraMax M5e. RLUs (Relative Light Units) were obtained with SoftMax Pro 5.4. Percentage of cell killing was calculated against no treatment as 0%. Data was graphed and analyzed using GraphPad Prism version 9.5.1. IC50 was determined via log(inhibitor) vs. response-variable slope (four parameters) curve fitting.
T24 cell line was engineered to express human nectin-4 and clonally selected. T24-human nectin-4 clone 108, a high expression clonal cell line, was seeded in culture medium (McCoy's 5A+1× GlutaMax+10% Heat Inactivated Fetal Bovine Serum+400 μg/ml G418). ADCs were added at final working concentration from 200 nM, 1:4 serially diluted in culture medium for 5 days.

[8] = test system: MDA-MB-468 xenograft; experiment: Tumor xenograft, moderate nectin-4 expression; type: in vivo, NSG mice; settings: MDAMB468 xenograft, single dose 2 mg/kg, day 71
Procedure: In a separate study, female NSG mice between 5-6 weeks of age were injected subcutaneously with MDA-MB-468 cells with moderate Nectin-4 expression. When tumors reached approximately 150-250 mm^3; animals were matched by tumor volume into treatment or control groups and dosing initiated (Day 0, n=8 per group). The test articles were given at a single dose (2 mg/kg) formulated with 5% Dextrose. Tumors were measured biweekly until Day 71.
In both models, a 2 mg/kg single dose treatment of either the nectin-4 ADCs (exemplified herein with each of Abs1-8 conjugated as in Formula XI, and with a DAR of 8) or benchmark enfortumab ADC (enfortumab conjugated with Formula XI, and with a DAR of 8) was used. Tumor growth was measured at day 40 for UMUC3 Nectin-4 clone F7 and day 71 for MDAMB468 xenografts.

[9] = test system: UM-UC-3 Nectin4 clone F7 xenograft; experiment: Tumor xenograft, high nectin-4 expression; type: in vivo, mice (nu/nu); settings: UMUC3 Nectin-4 clone F7 xenograft, single dose 2 mg/kg, day 40
Procedure: In order to test the efficacy of the nectin-4 ADCs of the present disclosure, which have effector null mutations in the Fc region, and to compare to the enfortumab antibody, which has wildtype Fc and in an ADC with the same payload background as the ones of this disclosure, two tumor xenograft models with either high or moderate nectin-4 expression were tested as described. Immune compromised female mice (nu/nu) between 5-8 weeks of age with weight 18-20 grams were implanted unilaterally on the right flank with UM-UC-3 Nectin4 clone F7 cells with high nectin-4 expression. […] The test articles were given at a single dose (2 mg/kg) formulated with 5% dextrose. Tumors were measured biweekly until Day 40.

[10] = test system: T24-hNectin-4 clone 14 cells (MMAE-resistant); experiment: ADC cytotoxicity in MMAE-resistant cells (CellTiter-Glo); type: cell-based, human; settings: T24-hNectin-4 clone 14, 5 days
Procedure: In T24 nectin-4 cells that are resistant to MMAE, two nectin-4 ADCs described herein and enfortumab vedotin were tested for activity. T24-hNectin-4 clone 14 cells were seeded at 500 per well in 100 ul culture medium, in white clear-bottom 96-well tissue culture plates and incubated at 37° C. with 5% CO2 overnight. The next day each ADC was serially diluted 1:4, with a starting concentration of 400 nM, in culture medium. One-hundred ul of each ADC dilution was added per well and the plates were covered with a Breathe-Easy® sealing membrane and incubated at 37° C. with 5% CO2. After 5 days of treatment, the plates were removed from the incubator, placed at room temperature for 15 minutes, and 100 ul medium per well was removed. One hundred ul of CellTiter-Glo reagent was added per well and the plates were incubated at room temperature for 10 minutes. RLUs (Relative Light Units) were obtained by SpectraMax M5e with SoftMax Pro 5.4. Percentage of cell killing was calculated against DMSO only (for free payloads) or no treatment (for ADCs) as 0%. Data was graphed and analyzed using Graphpad Prism version 9.5.1. IC50s were determined via log(inhibitor) vs. response-variable slope (four parameters) curve fitting.

[11] = test system: UMUC3-Luc-GFP + UMUC3-hNectin4 clone F7; experiment: Bystander killing of UMUC3-Luc-GFP cells co-cultured with UMUC3-hNectin4 clone F7 (ONE-Glo); type: cell-based, human
Procedure: as §1, with “overnight.” for “overnight. Next day, ADCs were added at final working concentration from 100 nM, 1:3 serially diluted in assay medium. To assess sensitivity of cell line to free payload, free payloads were added at final working concentration from 200 nM, 1:3 serially diluted in assay medium.”, “ONE-GloTM” for “ONE-Glo™”, “cytotoxicity. […] In experiments run as essentially described herein, the bystander effects of four nectin-4 ADCs described herein and enfortumab vedotin were evaluated using the UMUC3-hNectin-4 cloneF7/UMUC3-Luciferase-GFP cell pair. […]” for “cytotoxicity.”

[12] = test system: UMUC3-Luc-GFP + UMUC3-hNectin4 clone E3; experiment: Bystander killing of UMUC3-Luc-GFP cells co-cultured with UMUC3-hNectin4 clone E3 (ONE-Glo); type: cell-based, human; settings: UMUC3-Luc-GFP + UMUC3-hNectin4 clone E3, ratio 6:1, 5 days; read-out: IC50 of bystander effect
Procedure: as §1

With `CC[C@H](C)[C@@H]([C@@H](CC(=O)N1CCC[C@H]1[C@H](OC)[C@@H](C)C(=O)N[C@H](C)[C@@H](O)c1ccccc1)OC)N(C)C(=O)[C@@H](NC(=O)[C@@H](NC)C(C)C)C(C)C` [MMAE] (H-[NMeV]V[Dil][Dolaproine]-X1) the IC50 [1] was 0.38 nM.
With Enfortumab the CDC potential [2] was “did not show CDC potential”, the EC50 [3] was 0.03 nM and the IC50 [4] was 0.0593 nM. The IC50 [5] was 0.0409 nM, the “% activity (max GFP signal loss compared to enfortumab mAb (100%))” value [6] was 119.9% and the EC50 ([6]; read-out: EC50 of nectin-4-eGFP signal loss) was 2.55 nM. The IC50 [7] was 0.0747 nM.
For “Enfortumab ADC: benchmark: enfortumab conjugated with Formula XI, and with a DAR of 8 [reference compound]”, the Mean tumor volume [8] was 272.28 mm^3 and the Mean tumor volume [9] was 812.22 mm^3.
With Enfortumab vedotin [reference compound] the “Activity against MMAE-resistant cells” value [10] was “lost efficacy”, the IC50 ([11]; UMUC3-Luc-GFP + UMUC3-hNectin4 clone F7, ratio 4:1, 5 days, read-out: IC50 of bystander effect) was 4.3 nM and the “Bystander effect (in words)” value ([11]; UMUC3-hNectin-4 cloneF7/UMUC3-Luciferase-GFP 4:1, 5 days) was “much less potent bystander effect”. The IC50 [12] was 0.35 nM.
